Reference: publication PMC8949258, “Synthesis, Characterization and Anticancer Efficacy Evaluation of Benzoxanthone Compounds toward Gastric Cancer SGC-7901” (Molecules, 2022)

Columns and labels:
SGC-7901 = test: MTT in vitro cytotoxicity assay, SGC-7901; format: cell-based; conditions: Homo sapiens, 48 h
Procedure: (§1) Roswell Park Memorial Institute Medium (RPMI-1640) was used to culture BEL-7402 and SGC-7901 cell lines; and A549, HeLa and LO2 cells were cultured in Dulbecco’s Modified Eagle’s Medium (DMEM) containing 10% fetal bovine serum (FBS). Cell passage experiments were performed with trypsin every 2 days to maintain exponential growth. All cells were cultured until they reached logarithmic growth phase, unless specifically noted.
(§2) The cytotoxicity test was carried out according to a method described in the literature. The cells were seeded into 96-well micro-assay culture plates and grown overnight in a 5% CO2 incubator at 37 °C. Then, the cells were treated with gradient concentrations of the compounds when the cells grew to 60–70%. At 48 h posttreatment, the medium was removed and MTT solution was added. After 4 h, the absorbance at 490 nm was measured with a microplate reader. The IC50 values were calculated by SPSS (Statistical Product and Service Solutions) software.

A549 = test: MTT in vitro cytotoxicity assay, A549; format: cell-based; conditions: Homo sapiens, 48 h
Procedure: as §1, §2

HeLa = test: MTT in vitro cytotoxicity assay, HeLa; format: cell-based; conditions: Homo sapiens, 48 h
Procedure: as §1, §2

BEL-7402 = test: MTT in vitro cytotoxicity assay, BEL-7402; format: cell-based; conditions: Homo sapiens, 48 h
Procedure: as §1, §2

LO2 = test: MTT in vitro cytotoxicity assay, normal cell line LO2; format: cell-based; conditions: Homo sapiens, L02, 48 h
Procedure: as §1, §2

[1] = Partition coefficient by shake flask method; format: physicochemical; conditions: octanol / phosphate buffer (0.129 M NaCl, pH = 7.4)
Procedure: Partition coefficients of compounds in octanol and phosphate buffer (0.129 M NaCl, pH = 7.4) were measured as described by Owellen and coworkers. The concentrations of the compounds in the octanol and phosphate buffer phases were determined three times using a UV/Vis spectrophotometer. The partition coefficients were calculated from the ratio Coct/CPBS, where Coct and CPBS were the concentrations of the compound in the octanol and phosphate buffer, respectively.

[2] = pKa by potentiometric titration; format: physicochemical; conditions: aqueous dimethyl sulfoxide (30% DMSO), 30% dimethyl sulfoxide, 0.15 M KCl
Procedure: The pKa values of the compounds were determined by potentiometric titration using a pH meter (Basic pH Meter PB-10, Sartorius) calibrated with standard buffers of pH 4.01, 6.86 and 9.18 [26]. The compounds were dissolved in aqueous dimethyl sulfoxide (30% dimethyl sulfoxide) at constant ionic strength (0.15 M KCl). The solution was pre-acidified to approximately pH = 2 with 0.24 M HCl, and titrated until pH = 12 with 0.06 M KOH.

[3] = Stability in PBS by UV-Vis spectra; format: physicochemical
Source text: The stability of 3b and 3c in PBS was studied by UV-Vis spectra.

SGC-7901 cells [4] = test: Cell cycle arrest by flow cytometry (PI); format: cell-based, human; conditions: SGC-7901, IC50 concentrations, 24 h
Procedure: The cell cycle arrest was carried out using a method described in the literature. Briefly, SGC-7901 cells were treated with IC50 concentrations of compounds for 24 h. Then, the cells were harvested and fixed overnight in 70% ethanol at 4 °C. Next, the permeabilized cells were stained with PI/RNase buffer and the DNA content was determined on a flow cytometer. The results were analyzed by ModFit LT 4.0 (Verity Software House, Topsham, ME, USA).

SGC-7901 cells [5] = test: Intracellular ROS levels (DCFH-DA); format: cell-based, human; conditions: SGC-7901, IC50 concentrations, 24 h, versus control
Procedure: SGC-7901 cells were seeded in 12-well plate at a density of 1.5 × 10^5 cells per well for 24 h. Then, the medium was replaced with medium containing compounds for 24 h. After treatment, the medium was removed and washed three times with PBS, and the cells were stained with 20 μM DCFH-DA for 30 min in the dark. Finally, the cells were imaged under ImageXpress Mico XLS system (MD company, San Jose, CA, USA).

P38 MAPK = test: Western blot of P38 MAPK expression; format: cell-based, human; conditions: SGC-7901, IC50 concentrations, 24 h
Procedure: SGC-7901 cells were seeded in six-well plates for 24 h and incubated with IC50 concentrations of the compounds in the presence of 10% fetal bovine serum (FBS). The cells were then harvested in lysis buffer. After sonication, the samples were centrifuged for 20 min at 13,000× g. The protein concentration of the supernatant was determined by BCA (bicinchoninic acid) assay. Sodium dodecyl sulfate–polyacrylamide gel electrophoresis was carried out with loading equal amounts of proteins per lane. The gels were then transferred to poly (vinylidene difluoride) membranes (Millipore, Billerica, MA, USA) and blocked with 5% nonfat milk in TBST (20 mM Tris-HCl, 150 mM NaCl, 0.05% Tween 20, pH 8.0, Tween: polyoxyethylene monolaurate sorbaitan) buffer for 3 h. The polyvinylidene difluoride membranes were washed four times with TBST (4 × 10 min) and incubated with primary antibody solution at 4 °C overnight. They were then washed four times with TBST for a total of 30 min. The secondary antibodies were then conjugated with horseradish peroxidase (1:5000 dilution) for 70 min at room temperature and washed four times with TBST. The blots were visualized with the Amersham ECL ([…]) and western blotting detection reagents according to the manufacturer’s instructions.

SGC-7901 cells [6] = test: Intracellular MDA assay; format: cell-based, human; conditions: SGC-7901, IC50 concentrations, 24 h
Procedure: (§3) After incubation with IC50 concentrations of 3b and 3c for 24 h, SGC-7901cells were lysed. The lysate was centrifuged for 15 min to collect the supernatant. The protein concentration was determined using a BCA Protein Assay Kit (Beyotime, Shanghai, China). A lipid peroxidation MDA assay kit (Beyotime, Shanghai, China) was used to detect MDA content, and a GSH and GSSG Assay Kit was used to detect intracellular GSH. SGC-7901 cells were incubated with IC50 concentrations of 3b and 3c for 24 h. Afterwards, the cells were lysed by the freeze-thaw method, and the lysate was centrifuged for 5 min to collect the supernatant. The absorbance was measured at 412 nm with a microplate reader.

SGC-7901 cells [7] = test: Intracellular GSH assay; format: cell-based, human; conditions: SGC-7901, IC50 concentrations, 24 h
Procedure: as §3

SGC-7901 cells [8] = test: Mitochondrial membrane potential assay (JC-1); format: cell-based, human; conditions: SGC-7901, IC50 concentrations, 24 h; control 5.85
Procedure: SGC-7901 cells were treated with IC50 concentrations of the compounds in 12-well plates for 24 h and were washed three times with cold PBS. Then, the cells were stained with 1 μg/mL JC-1 for 30 min at 37 °C in the dark. After that, the cells were washed twice with ice-cold PBS to remove residual stain and imaged under the ImageXpress Micro XLS system (MD company, San Jose, CA, USA).

CRT, HSP70 and HMGB1 = test: Immunostaining of CRT, HSP70 and HMGB1 (immunogenic cell death); format: cell-based, human; conditions: SGC-7901, IC50 concentrations, 24 h
Procedure: The SGC-7901 cells were cultured in 12-well plates and treated with IC50 concentrations of 3b and 3c for 24 h. The cells were fixed with 75% alcohol, and then washed and incubated with immunostaining blocker for 1 h. The primary antibody CRT Antibody, HSP70 Antibody and HMGB1 antibody were incubated for 12 h and then the cells were washed three times with PBS. Next, the secondary antibody FITC-labeled Goat Anti-Rabbit IgG was incubated in darkness for 1 h. The cells were washed three times with PBS. Finally, the nuclei were stained with Hoechst and photographed under Micro XLS System (MD company, San Jose, CA, USA).

SGC-7901 cells [9] = test: ATP measurement; format: cell-based, human; conditions: SGC-7901, IC50 concentrations, 24 h
Procedure: The SGC-7901 cells were cultured in six-well plates and treated with IC50 concentrations of 3b and 3c for 24 h. The cells were lysed for 10 min and centrifuged to obtain the supernatant. The prepared ATP detection working solution was added into the supernatant, 5 min late, the RLU value was measured.

SGC-7901 cells [10] = test: Intracellular Ca2+ levels (Fluo-3AM); format: cell-based, human; conditions: SGC-7901, IC50 concentrations, 24 h, versus control
Procedure: Fluo-3AM, a Ca^2+-sensitive fluorescent probe, was used to detect the level of intracellular Ca^2+. SGC-7901 cells were incubated with IC50 concentrations of the compounds for 24 h at 37 °C. Then, the cells were washed three times with PBS, incubated with Fluo-3AM, and observed under an ImageXpress Micro XLS system (MD company, San Jose, CA, USA). The fluorescence intensity was analyzed under a high content analysis system.

calf thymus DNA (CT-DNA) [11] = test: EB-competitive binding, luminescence titration; conditions: EB-CT-DNA (DNA:EB = 1.25:1), compounds 6.62–50 μM
Procedure: We used ethidium bromide (EB)-competing binding experiments to investigate the binding mode between the compounds and CT-DNA. It is well known that EB combines DNA molecules through a classic intercalative mode. Maintaining the DNA-EB solution concentration (DNA:EB = 1.25:1) and varying the concentrations of compounds (6.62–50 μM), the spectra were recorded after 5 min. The Stern-Volmer constants (Ksv) were calculated using the following Equation (3):F0/F = 1 + Ksv [Q](3) where F0 and F were the fluorescence intensities of the EB-CT DNA solution at 550–700 nm in the absence and presence of the compounds, respectively. [Q] was the concentration of compounds. In plots of F0/F versus [Q], Ksv was given by the ratio of the slope to the intercept.

calf thymus DNA (CT-DNA) [12] = test: Viscosity experiments with CT-DNA; format: binding; conditions: 25 (±0.1) °C, [DNA] = 200 μM, compounds 0 to 90 μM
Procedure: An ubberhold viscometer was used to measure the viscosity of the CT-DNA solution in the absence and presence of compounds, and the temperature was maintained at 25 ± 0.1 °C. The concentration of CT-DNA was 200 μM, and the concentrations of the compounds varied from 0 to 90 μM. The flow times were recorded with a digital stopwatch; each sample was measured three times to get the average time.

SGC-7901 cells [13] = test: Cellular uptake (DAPI, fluorescence microscope); format: cell-based, human; conditions: SGC-7901, IC50 concentrations, 24 h
Procedure: Cellular uptake studies were performed according to a method described in the literature. SGC-7901 cells were placed in 24-well microassay culture plates and grown overnight at 37 in a 5% CO2 incubator. The compounds tested were then added to the wells. […] Upon completion of incubation, the wells were washed three times with phosphate buffered saline (PBS). After moving the culture medium, the cells were stained with 2-(4-amidinophenyl)-6-indolecarbamidine dihydrochloride (DAPI) and observed under fluorescence microscope.

Q: With `O=C(O)CCc1cccc2oc3ccc4ccccc4c3c(=O)c12` [Compound 3a, 3-(12-oxo-12H-benzo[a]xanthen-11-yl)propanoic acid] as the compound, how does the IC50 (SGC-7901) read?
A: > 100 µM

Q: And the IC50 (A549)?
A: > 100 µM

Q: What about the IC50 (HeLa) of the same compound?
A: > 100 µM

Q: What about the IC50 (BEL-7402) of the same compound?
A: > 100 µM

Q: What about the IC50 (LO2) of the same compound?
A: > 100 µM

Q: With `COC(=O)c1ccc2c(ccc3oc4cccc(CCC(=O)O)c4c(=O)c32)c1` [Compound 3b, 3-(3-methoxycarbonyl-12-oxo-12H-benzo[a]xanthen-11-yl)propanoic acid] as the compound, how does the IC50 (SGC-7901) read?
A: 45.6 ± 6.5 µM

Q: And the IC50 (A549)?
A: 51.5 ± 13.7 µM

Q: And the IC50 (HeLa)?
A: 68 ± 9.28 µM

Q: And the IC50 (BEL-7402)?
A: > 100 µM

Q: And the IC50 (LO2)?
A: 38.1 ± 0.41 µM

Q: And the logP [1]?
A: 0.822

Q: What about the pKa [2] of the same compound?
A: 7.48

Q: What about the “stability in PBS” value ([3]; UV-Vis spectra at 0 and 48 h) of the same compound?
A: stable in PBS

Q: And the “solubility in PBS” value ([3]; precipitate observed at 48 h)?
A: low solubility in PBS

Q: And the “Percentage in the cell G0/G1” value (SGC-7901 cells [4])?
A: 74.6%

Q: And the “Percentage in the cell G2/M” value (SGC-7901 cells [4])?
A: 17.4%

Q: And the “increase in the cell at G0/G1 phase” value (SGC-7901 cells [4]; versus control)?
A: 17.7%

Q: And the “increase of DCF fluorescence intensity” value (SGC-7901 cells [5])?
A: about 60.5%

Q: What about the “P38 MAPK expression” value (P38 MAPK) of the same compound?
A: significantly upregulated

Q: And the MDA (SGC-7901 cells [6])?
A: 5.58 nmol/mg

Q: And the GSH concentration (SGC-7901 cells [7])?
A: 69.96 µM

Q: And the “ratio of red/green fluorescence (R), JC-1” value (SGC-7901 cells [8])?
A: 3.01

Q: And the “expression of CRT, HSP70 and HMGB1” value (CRT, HSP70 and HMGB1)?
A: increased

Q: What about the ATP concentration (SGC-7901 cells [9]) of the same compound?
A: 3.30 µM

Q: What about the “increase of Flu-3-AM fluorescence intensity (intracellular Ca2+)” value (SGC-7901 cells [10]) of the same compound?
A: 1.67 times

Q: What about the “Stern-Volmer constant (Ksv)” value (calf thymus DNA (CT-DNA) [11]) of the same compound?
A: 2.20 (±0.12) × 10^3 M^−1

Q: What about the “relative viscosity of CT-DNA with increasing compound concentration” value (calf thymus DNA (CT-DNA) [12]) of the same compound?
A: increased

Q: And the cellular uptake (SGC-7901 cells [13])?
A: enter the cytoplasm and accumulate in the nuclei
